Source: paper PMC10812467, “Peroxidasin Inhibition by Phloroglucinol and Other Peroxidase Inhibitors” (Antioxidants, 2023)
Where two headings read alike, the source gives them in different places.

How the values were obtained:
PFHR9 cells = test: Tolerability / toxicity in cell culture; type: cell-based
Description: (§1) PFHR9 cells (ATCC) were grown in Dulbecco’s Modified Eagle Medium (Gibco), supplemented with 10% heat-inactivated foetal bovine serum (Moregate) and 1% Penicillin Streptomycin (Gibco). As described previously, cells were seeded in 150 mm cell culture dishes and ECM was isolated. The concentration of the isolated ECM protein was measured (Direct Detect) and the yield was typically ~5 mg per dish. […] After 10 min, 100 μM bromide was added and the cross-link formation was started by adding 100 μM hydrogen peroxide. After 1 h at 37 °C, the reaction was stopped, by adding 1 mM sodium azide, and ECM was digested with 2 mg mL^−1 of collagenase type I (Worthington) for 48 h at 37 °C. […] Densitometric analyses of both dimer bands (Alliance Uvitec Cambridge imager) were used to determine the extent of inhibition of the cross-link formation. […] Once full confluence was reached, the medium was changed daily, and inhibitors were added at the indicated concentrations in 1 mL of medium for 7 days.

MPO = details: literature statement; cited from earlier work
LPO = tested on: LPO; set-up: method as in PMID 8068644; details: cited from earlier work
TPO = tested on: TPO; set-up: method as in PMID 8068644; details: cited from earlier work
[1] = tested on: collagen IV NCD sulfilimine cross-link formation in isolated ECM from PFHR9 cells; test: Inhibition of collagen IV cross-linking in decellularized extracellular matrix; type: biochemical
Description: as §1, with “°C. The digest was spun (20 kg, RT, 20 min) and the extent of cross-linking of the NCD of collagen IV was determined by the resolution of the supernatant protein on a 12% sodium dodecyl-sulfate polyacrylamide gel electrophoresis (SDS-PAGE).” for “°C.”

[2] = tested on: collagen IV cross-link formation by PXDN; set-up: method as in PMID 22842973; details: read-out: IC50 inhibition of collagen IV cross-linking, previously published value; cited from earlier work

Oc1cc(O)cc(O)c1 [Phloroglucinol, 1,3,5-Trihydroxybenzene]
tolerability in cell culture (PFHR9 cells): well tolerated in cell culture and does not impact cell proliferation | inhibition of MPO (MPO): not to be inhibited | inhibition of LPO (LPO): potently inhibits | inhibition of TPO (TPO): potently inhibits | IC50 ([1]; 100 μM bromide, 100 μM hydrogen peroxide, 1 h 37 °C, Western blot densitometry, read-out: IC50 DECM): 950 nM | IC50 ([1]; read-out: IC50 inhibition of collagen IV cross-link formation in ECM model): ~950 nM | IC50 [2]: 500 nM
